Data on two molecules can be found in US20020168436A1, “Decursinol or derivative thereof as analgesic agent” (priority 2000, published 2002).

For assay [1], the system named is mice administered with β-amyloid(1-42). As to the kind of experiment: Passive avoidance test in mice given β-amyloid(1-42) into the cerebral ventricle. The class given is in vivo, mouse. Conditions: for dementia-preventive effect in passive avoidance test: FIGS. 7A and 7B. How it is done: (§1) The administration of β-amyloid(1-42) to a mouse was carried out in accordance with the method described by Laursen & Belknap(J. Pharmacol. Methods, 16, 355-357 (1986)). Specifically, 5 μl of phosphate-buffered saline containing 1.85 μg of β-amyloid(1-42) was put in a 50 μl Hamilton syringe fitted with a 26 gauge needle, the tip of the needle was inserted into the bregma of the mouse and then the β-amyloid(1-42) solution was administered thereto. Each mouse of a control group received an equal amount of β-amyloid(42-1) in place of β-amyloid(1-42). A passive avoidance test was carried out at days 1-2 (day 1: training, day 2: test) and a Y-maze test, at days 3-4 (day 3: training, day 4: test) after the administration.
In order to examine the learning and memory-retention ability of a mouse, a passive avoidance test was carried out in accordance with the method described in Song et al., J. Neurochem., 71, 875-878 (1998), as follows.
A passive avoidance case equipped with a light room and a dark room was prepared, the floor of the dark room being designed to deliver an electrical shock to a test animal. First, a mouse was put in the light room and, upon entering the dark room, it received an electrical shock at 0.25 mA for 1 sec. Twenty-four hours after the training, the mouse was put in the light room again and the time it took to enter the dark room was measured as a passive avoidance time. The maximum time was set at 300 sec., i.e., in case when the mouse took more than 300 sec. to enter the dark room, the passive avoidance time was determined to be 300 sec.
Forty 4- to 5-week old mice each weighing 20 to 25 g were divided into four groups of equal number. The Angelicae gigas Nakai extract prepared in Example 1 was dissolved in water to concentrations of 0.08% (w/v) and 0.1% (w/v), respectively, and the mice of two groups were provided with the resulting solutions instead of water for 4 weeks at a daily dose of 8 ml of the solution/mouse. The mice of the other two groups were provided with normal drinking water for 4 weeks. Thereafter, the mice of one of the two normal drinking water groups were administered into their cerebral ventricle with 1.85 μg of β-amyloid(42-1) (“control group”) and the mice of the remaining three groups, with β-amyloid(1-42) (Aβ1-42), as in Reference Example 1. Then, a passive avoidance test was carried out for each group of mice as in Reference Example 2 and the data attained were averaged for each group.
Fifty 4- to 5-week old mice each weighing 20 to 25 g were divided into five groups by equal number. Ferulic acid was dissolved in water to concentrations of 0.002 % (w/v), 0.004 % (w/v) and 0.006 % (w/v), respectively, and the mice of three groups were provided with the resulting solutions instead of water for 4 weeks at a daily dose of 8 ml of the solution/mouse. The mice of the other two groups were provided with normal drinking water for 4 weeks. Thereafter, the mice of one of two normal drinking water groups were administered into their cerebral ventricle with 1.85 μg of β-(42-1) (“control group”) and the mice of the remaining four groups, with β-amyloid(1-42) (Aβ1-42), as in Reference Example 1. Then, a passive avoidance test was carried out for each group of mice as in Reference Example 2 and the data attained were averaged for each group.
Forty 4- to 5-week old mice each weighing 20 to 25 g were divided into four groups of equal number. […]

Assay [2] shares this test system. As to the kind of experiment: Y-maze test in mice given β-amyloid(1-42) into the cerebral ventricle. Type of assay: in vivo, mouse. The conditions noted are these: for alternation behavior (%): compared with the group given β-amyloid(1-42) only. How it is done: as §1
Spontaneous alternation behavior of a mouse was examined by a Y-maze test in accordance with the method described in Starter et al., Psychopharmacology, 94, 491-495 (1988) as follows.
The Y-maze consisted of three arms shaped like Y. A test mouse was placed in one of the arms such that it faced the arm's terminal and allowed to roan freely through the three arms for […]. The number of alternation was determined by counting the number of occasions the mouse passed the three arms consecutively. Spontaneous alternation behavior was determined as the percentage of the alternation number based on the total number of arm entries.
Further, Y-maze tests were carried out employing the above-prepared mice as in Reference Example 3.
Forty 4- to 5-week old mice each weighing 20 to 25 g were divided into four groups of equal number. Decursinol was dissolved in corn oil, mixed with a mouse fodder, and the mice of two groups were provided with the resulting fodder for 4 weeks at a daily dose of 7.5 mg decursinol/kg or 15 mg decursinol/kg. The mice of the other two groups were provided with a normal mouse fodder containing an equal amount of corn oil as above for 4 weeks. Thereafter, the mice of one of the two normal fodder groups were administered, into their cerebral ventricle, with 1.85 μg of β-(42-1) (“control group”) and the mice of the remaining three groups, with β-amyloid(1-42) (Aβ1-42), as in Reference Example 1. Then, a passive avoidance test and a Y-maze test were carried out for each group of mice as in Reference Examples 2 and 3, respectively, and the data attained were averaged for each group.

The subject of assay [3] is OX-42. The assay can be described thus: Immunohistochemical staining of OX-42 in pyriform cortex and amygdaloid nucleus. The class given is in vivo, mouse. The conditions noted are these: 0.006% (w/v) in drinking water for 4 weeks; 1 day after β-amyloid(1-42); compared with β-amyloid(1-42) only; FIGS. 8c and 8f. How it is done:
4- to 5-week old mice each weighing 20 to 25 g was divided into three groups. Ferulic acid was dissolved in water to a concentration of 0.006% (w/v), and the mice of one group were provided with the resulting solution instead of water for 4 weeks. The mice of other two groups were provided with normal drinking water for 4 weeks. Thereafter, the mice of one of two normal drinking water groups were administered, into their cerebral ventricle, with 1.85 μg of β-amyloid(42-1) (“control group”) and the mice of the remaining two groups, with β-amyloid(1-42) (Aβ1-42), as in Reference Example 1.
One day after the administration of β-amyloid, each of the mice was anesthetized with sodium pentobarbital and its abdomen was incised. The mouse was fixed by passing 4% paraformaldehyde through its left ventricle and its brain was excised.
In accordance with the method described in Cho et al., J. Comp. Neurol., 369: 264-276(1996), a section was prepared from the excised brain and immunohistochemical staining was carried out in order to stain […] in the pyriform cortex and the amygdaloid nucleus by employing 1:500 dilution of anti-OX-42 antibody (Halan (Sera-Lab)).

The subject of assay [4] is choline acetyltransferase (ChAT). As to the kind of experiment: Immunohistochemical staining of ChAT in septal nucleus. Conditions: 0.006% (w/v) in drinking water for 4 weeks; 5 days after β-amyloid(1-42); FIG. 9c. The class given is in vivo, mouse. How it is done:
Three groups of mice were administered with ferulic acid and/or β-amyloid in accordance with the method of (1). 5 days after the administration of β-amyloid, immunohistochemical staining was carried out according to the method of (1) except for employing 1:750 dilution of anti-choline-acetyltransferase (ChAT) antibody (Chemicon) in order to stain ChAT, an enzyme for acetylcholine synthesis, in the septal nucleus wherein acetylcholine neurons are distributed.

Assay [5] relates to primary mouse cortical culture. The assay can be described thus: β-amyloid(1-42)-induced leakage of lactate dehydrogenase (LDH) from cultured neurons. The class given is cell-based. Conditions: 100 μM, 30 minutes before 25 μM β-amyloid(1-42); 24 and 48 hours; compared with β-amyloid(1-42) group; FIG. 10.
Protocol: The culture of mouse cerebral neurons was divided into three groups. Neurons of one group received no treatment (control group). […] The degree of damage in neurons was determined by measuring the concentration of lactate dehydrogenase (LDH), which was released from the damaged or disrupted neurons into the culture medium, in accordance with the method of Wie et al. Samples of the culture medium were taken at 24 and 48 hours after the administration of β-amyloid(1-42), respectively, and their LDH concentrations were measured with a microplate reader.

With `CC1(C)Oc2cc3oc(=O)ccc3cc2C[C@@H]1O` [decursinol], in assay [1] (7.5 or 15 mg/kg daily in fodder for 4 weeks, FIG. 6A), the “decrease in the passive avoidance response time due to β-amyloid(1-42)” value is given as “prevented”. For the same molecule, in assay [1] (alone in a low amount: 2 mg/kg or 3 mg/kg decursinol), the “dementia-preventive effect in passive avoidance test” value was “no dementia-preventive effect”. Besides, the “number of arm entries (spontaneous movement)” value in assay [2] (7.5 or 15 mg/kg daily in fodder for 4 weeks, FIG. 6C) is given as “nearly the same for all groups”. In assay [2] (7.5 or 15 mg/kg daily in fodder for 4 weeks, FIG. 6B), the “alternation behavior (%)” value was “higher and increased dose-dependently”.
As for `COc1cc(/C=C/C(=O)O)ccc1O` [ferulic acid], the “decrease in the passive avoidance response time” value in assay [1] (0.002, 0.004 and 0.006% (w/v) in drinking water for 4 weeks before β-amyloid(1-42), FIG. 3A) is “prevented dose-dependently”. Further, the “passive avoidance response time” value in assay [1] (0.006% (w/v) in drinking water for 1, 2, 3 and 4 weeks, FIG. 3B) is “becomes increasingly higher with the period of administration”. Also, the “dementia-preventive effect in passive avoidance test” value in assay [1] (alone in a low amount: 0.002% or 0.003% (w/v) ferulic acid) was “no dementia-preventive effect”. Also, the “number of arm entries (spontaneous movement)” value in assay [2] (0.006% (w/v) for 1 to 4 weeks, FIG. 4B) is given as “nearly the same for all groups”. Also, the “alternation behavior (%)” value in assay [2] (0.006% (w/v) for 1 to 4 weeks, FIG. 4A) was “higher and increased in proportion to the period of administration”. For the same molecule, the OX-42 staining result in assay [3] is given as “much less pronounced”. The ChAT staining entry in assay [4] is “the decrease was suppressed”. For the same molecule, the “LDH concentration in culture medium” value in assay [5] is reported as “much lower”.
